Patent publication US5736161A, “Pharmaceutical preparation for improving the bioavailability of drugs which are difficult to absorb and a procedure for obtaining it” (Lipotec S.A., priority 1993, dated 1998)

Tests used:
Xa = assay: Bioavailability test in dogs: anti-Xa activity in the plasma, ex-vivo chromogenic test (Coatest); set-up: species or system dog
Protocol: Bioavailability tests on the capsules prepared according to examples 1 and 2.
(§1) Bioavailability studies in which the animals received 40 mg of heparin by the oral route or 10 mg by the subcutaneous route over a period of three days.
(§2) Four dogs (2 for each treatment), each approximately 15 kg in weight.
A bioassay (anti-Xa activity) was used to measure the concentrations in the plasma.
The anti-Xa activity in the plasma was measured ex-vivo using a chromogenic test using a commercially available kit (Coatest) and expressed in IU/ml. The values were calculated from a calibration curve obtained in-vitro by adding different quantities of SLMWH to dog plasma.
The blood was extracted from the femoral vein. Starting on the second day of experiments samples were collected before and 1, 2, 3, 4 and 6 hours after oral or subcutaneous administration, sodium citrate was added to the samples (9 vol. sangre:1 vol. 3.8% sodium citrate) followed by centrifuging at 1200 rpm for 20 minutes at 4° C. The plasma was separated immediately and the anti-Xa activity was tested.

[1] = Urine analysis by proton NMR after chondroitinase AC treatment; format: in vivo, dog; conditions: chondroitinase AC treated, route not distinguished
Protocol: as §1, §2
(§3) The urine samples were treated with chondroitinase AC to eliminate the endogenous chondroitins. The residue was analyzed by means of proton NMR and HPLC (to determine the molecular weight).

[2] = Urine analysis by HPLC (molecular weight) after chondroitinase AC treatment; format: in vivo, dog; conditions: chondroitinase AC treated, route not distinguished
Protocol: as §1, §2, §3

[3] = oral, capsules (examples 1 and 2), 40 mg heparin, second day
[4] = subcutaneous, 10 mg heparin, second day

levels of heparin in the blood (anti-Xa activity method) (Xa; [3]): detectable
peak values of anti-Xa activity in plasma (Xa; [3]): 0.2-0.4 IU/ml
peak values of anti-Xa activity in plasma (Xa; oral, capsules (examples 1 and 2), 40 mg heparin, third day, 1 and 2 hours after administration): 0.8-1.2 IU/ml
significant anti-Xa activity in plasma after 6 hours (Xa; oral, capsules (examples 1 and 2), 40 mg heparin, third day): > 0.3 IU/ml
significant continued anti-Xa activity (>0.1 IU/ml) for 3 hours (Xa; oral, capsules, 40 mg heparin, second day, not found after oral): only after subcutaneous administration
levels of heparin in the blood (anti-Xa activity method) (Xa; subcutaneous injection, 10 mg heparin, second day): detectable
duration of significant continued anti-Xa activity (>0.1 IU/ml) in plasma (Xa; [4]): 3 h
peak values of anti-Xa activity in plasma (Xa; [4]): 0.2-0.4 IU/ml
significant continued anti-Xa activity in plasma (Xa; subcutaneous, 10 mg heparin, second day, for 3 hours): > 0.1 IU/ml
peak values of anti-Xa activity in plasma (Xa; subcutaneous, 10 mg heparin, third day, 1 and 2 hours after administration): 0.8-1.2 IU/ml
significant anti-Xa activity in plasma after 6 hours (Xa; subcutaneous, 10 mg heparin, third day): > 0.3 IU/ml
molecular weight of the urine residue (HPLC) [2]: 5 kDaltons
Substance: sodium heparin of low molecular weight [SLMWH]
basal values of anti-Xa activity before the final dose (Xa; third day vs previous day, oral or subcutaneous, route not distinguished): significantly higher than the corresponding values on the previous day
H1-NMR test of urine [1]: presence of partially disulphated heparin
